Data taken from paper PMC1616953 (Nucleic Acids Research, 2006).

Tested on: Ssα-fuc
Assay: enzyme kinetics, 4-nitrophenyl substrate hydrolysis
Format: biochemical, Saccharolobus solfataricus
Conditions: 65°C; KM printed as identical within error for Ssα-fuc and Ssα-fuc^B

## C[C@@H]1O[C@@H](Oc2ccc([N+](=O)[O-])cc2)[C@@H](O)[C@H](O)[C@@H]1O [4NP-Fuc, 4-nitrophenyl-α-L-fucoside]
  Km: 28.7 ± 5 µM
